# Results taken from PMC7180948, “New Insights into 4-Anilinoquinazolines as Inhibitors of Cardiac Troponin I–Interacting Kinase (TNNi3K)” (Molecules, 2020).
# Columns and labels:
# Experiment in all cases: biochemical
# Set-up in all cases: KINOMEscan competition binding panel (Eurofins DiscoverX), single concentration, percent inhibition
# Details in all cases: read-out: 15 at 1 µM % inhibition
# DCAMKL1 = molecular target: T1, DCAMKL1 (Homo sapiens, UniProt O15075)
# T1 construct: gene DCLK1
# Outline: (§1)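 KINOMEscan binding panel of >400 kinases, run by Eurofins DiscoverX, with compounds tested at a single concentration of 1 µM.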
# ERK5 = molecular target: T2, ERK5 (Homo sapiens, UniProt Q13164)
# T2 construct: gene MAPK7
# Outline: as §1
# HUNK = HUNK (Homo sapiens, UniProt P57058)
# Outline: as §1
# MLK1 = molecular target: T3, MLK1 (Homo sapiens, UniProt P80192)
# T3 construct: gene MAP3K9
# Outline: as §1
# FLT3(R834Q) = FLT3(R834Q) (Homo sapiens, UniProt P36888, R834Q)
# Outline: as §1
# SRMS = SRMS (Homo sapiens, UniProt Q9H3Y6)
# Outline: as §1
# FGR = FGR (Homo sapiens, UniProt P09769)
# Outline: as §1
# CDK4-cyclinD1 = molecular target: T4, CDK4-cyclinD1 (Homo sapiens, UniProt P11802)
# T4 construct: cyclinD1
# Outline: as §1
# [1] = molecular target: T5, ABL1(E255K)-phosphorylated (Homo sapiens, UniProt P00519, E255K)
# T5 construct: phosphorylated
# Outline: as §1
# NEK11 = NEK11 (Homo sapiens, UniProt Q8NG66)
# Outline: as §1
# [2] = molecular target: T6, RSK2(Kin.Dom.2-C-terminal) (Homo sapiens, UniProt P51812)
# T6 construct: gene RPS6KA3; Kin.Dom.2-C-terminal
# Outline: as §1
# FGFR2 = FGFR2 (Homo sapiens, UniProt P21802)
# Outline: as §1
# AKT3 = AKT3 (Homo sapiens, UniProt Q9Y243)
# Outline: as §1
# QSK = molecular target: T7, QSK (Homo sapiens, UniProt Q9Y2K2)
# T7 construct: gene SIK3
# Outline: as §1
# EGFR(G719C) = EGFR(G719C) (Homo sapiens, UniProt P00533, G719C)
# Outline: as §1
# EGFR(L861Q) = EGFR(L861Q) (Homo sapiens, UniProt P00533, L861Q)
# Outline: as §1
# KIT = KIT (Homo sapiens, UniProt P10721)
# Outline: as §1
# GAK = GAK (Homo sapiens, UniProt O14976)
# Outline: as §1
# TESK1 = TESK1 (Homo sapiens, UniProt Q15569)
# Outline: as §1
# CDKL1 = CDKL1 (Homo sapiens, UniProt Q00532)
# Outline: as §1
# MAP4K5 = MAP4K5 (Homo sapiens, UniProt Q9Y4K4)
# Outline: as §1
# MAP4K4 = MAP4K4 (Homo sapiens, UniProt O95819)
# Outline: as §1
# PKAC-alpha = molecular target: T8, PKAC-alpha (Homo sapiens, UniProt P17612)
# T8 construct: gene PRKACA
# Outline: as §1
# EPHA5 = EPHA5 (Homo sapiens, UniProt P54756)
# Outline: as §1
# T7 sequence (Q9Y2K2 whole entry): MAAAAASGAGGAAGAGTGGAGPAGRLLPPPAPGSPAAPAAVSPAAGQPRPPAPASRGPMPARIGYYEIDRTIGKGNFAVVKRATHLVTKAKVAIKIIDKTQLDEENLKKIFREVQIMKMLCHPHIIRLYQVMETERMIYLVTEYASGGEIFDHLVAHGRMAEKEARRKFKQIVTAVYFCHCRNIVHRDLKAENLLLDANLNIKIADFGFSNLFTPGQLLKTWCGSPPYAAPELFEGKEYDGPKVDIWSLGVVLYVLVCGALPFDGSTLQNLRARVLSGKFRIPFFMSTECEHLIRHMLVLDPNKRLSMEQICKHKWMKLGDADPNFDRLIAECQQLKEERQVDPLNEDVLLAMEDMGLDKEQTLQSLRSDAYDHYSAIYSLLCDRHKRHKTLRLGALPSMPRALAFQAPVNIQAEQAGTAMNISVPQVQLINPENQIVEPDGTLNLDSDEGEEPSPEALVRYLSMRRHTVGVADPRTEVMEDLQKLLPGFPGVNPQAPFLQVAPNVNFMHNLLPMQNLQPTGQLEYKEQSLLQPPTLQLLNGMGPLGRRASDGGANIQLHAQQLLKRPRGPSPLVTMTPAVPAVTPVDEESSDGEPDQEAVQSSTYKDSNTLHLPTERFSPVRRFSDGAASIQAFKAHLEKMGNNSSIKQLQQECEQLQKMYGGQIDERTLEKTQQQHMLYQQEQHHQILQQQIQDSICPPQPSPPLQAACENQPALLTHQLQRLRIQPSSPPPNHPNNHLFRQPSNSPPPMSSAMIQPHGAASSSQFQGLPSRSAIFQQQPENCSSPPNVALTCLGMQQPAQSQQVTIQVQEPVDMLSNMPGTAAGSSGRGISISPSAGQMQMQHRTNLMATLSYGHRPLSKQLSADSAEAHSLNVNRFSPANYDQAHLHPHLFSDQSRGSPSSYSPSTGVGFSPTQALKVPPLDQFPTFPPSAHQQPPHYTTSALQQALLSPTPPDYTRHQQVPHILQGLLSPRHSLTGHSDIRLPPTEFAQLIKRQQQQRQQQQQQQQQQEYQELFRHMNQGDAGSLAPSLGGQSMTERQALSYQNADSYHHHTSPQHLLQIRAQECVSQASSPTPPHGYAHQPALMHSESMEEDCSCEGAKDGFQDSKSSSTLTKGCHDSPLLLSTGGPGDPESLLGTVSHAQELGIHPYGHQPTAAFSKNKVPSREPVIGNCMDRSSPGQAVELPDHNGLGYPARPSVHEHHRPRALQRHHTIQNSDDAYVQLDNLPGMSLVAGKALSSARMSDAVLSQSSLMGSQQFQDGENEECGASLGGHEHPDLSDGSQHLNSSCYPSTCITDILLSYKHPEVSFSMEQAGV
# MAP4K4, sequence (O95819 whole entry): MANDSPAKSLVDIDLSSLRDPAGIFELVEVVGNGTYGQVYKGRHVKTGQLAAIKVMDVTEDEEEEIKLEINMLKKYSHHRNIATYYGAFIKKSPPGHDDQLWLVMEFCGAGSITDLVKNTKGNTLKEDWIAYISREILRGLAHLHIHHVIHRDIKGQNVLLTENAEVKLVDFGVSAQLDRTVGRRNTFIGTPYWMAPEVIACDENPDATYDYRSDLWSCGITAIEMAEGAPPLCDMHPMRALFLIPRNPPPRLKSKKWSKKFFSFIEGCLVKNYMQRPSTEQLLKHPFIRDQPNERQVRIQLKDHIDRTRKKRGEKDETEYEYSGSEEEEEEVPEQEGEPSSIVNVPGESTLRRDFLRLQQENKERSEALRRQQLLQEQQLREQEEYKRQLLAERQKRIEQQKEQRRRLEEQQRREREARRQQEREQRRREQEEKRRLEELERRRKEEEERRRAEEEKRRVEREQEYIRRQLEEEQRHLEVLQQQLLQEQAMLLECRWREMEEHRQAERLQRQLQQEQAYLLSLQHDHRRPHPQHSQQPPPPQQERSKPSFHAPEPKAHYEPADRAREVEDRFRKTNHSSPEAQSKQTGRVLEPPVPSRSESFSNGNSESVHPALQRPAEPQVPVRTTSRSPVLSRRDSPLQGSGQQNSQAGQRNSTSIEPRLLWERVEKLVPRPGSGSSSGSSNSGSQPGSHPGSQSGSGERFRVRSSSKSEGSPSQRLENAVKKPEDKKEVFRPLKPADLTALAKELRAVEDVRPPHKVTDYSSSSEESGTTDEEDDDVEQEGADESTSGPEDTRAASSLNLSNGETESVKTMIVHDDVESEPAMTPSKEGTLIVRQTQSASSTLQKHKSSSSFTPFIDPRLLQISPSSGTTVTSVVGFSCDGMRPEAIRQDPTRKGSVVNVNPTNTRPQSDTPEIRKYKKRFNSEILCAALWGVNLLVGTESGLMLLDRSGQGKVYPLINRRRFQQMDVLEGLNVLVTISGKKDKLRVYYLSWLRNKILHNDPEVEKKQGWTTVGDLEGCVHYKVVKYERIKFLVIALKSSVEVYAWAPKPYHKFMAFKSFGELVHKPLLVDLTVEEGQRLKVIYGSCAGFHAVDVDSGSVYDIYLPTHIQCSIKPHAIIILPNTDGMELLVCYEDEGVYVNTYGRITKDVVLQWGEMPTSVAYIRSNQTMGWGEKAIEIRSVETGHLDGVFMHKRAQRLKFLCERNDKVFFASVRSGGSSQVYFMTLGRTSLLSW
# GAK, sequence (O14976 whole entry): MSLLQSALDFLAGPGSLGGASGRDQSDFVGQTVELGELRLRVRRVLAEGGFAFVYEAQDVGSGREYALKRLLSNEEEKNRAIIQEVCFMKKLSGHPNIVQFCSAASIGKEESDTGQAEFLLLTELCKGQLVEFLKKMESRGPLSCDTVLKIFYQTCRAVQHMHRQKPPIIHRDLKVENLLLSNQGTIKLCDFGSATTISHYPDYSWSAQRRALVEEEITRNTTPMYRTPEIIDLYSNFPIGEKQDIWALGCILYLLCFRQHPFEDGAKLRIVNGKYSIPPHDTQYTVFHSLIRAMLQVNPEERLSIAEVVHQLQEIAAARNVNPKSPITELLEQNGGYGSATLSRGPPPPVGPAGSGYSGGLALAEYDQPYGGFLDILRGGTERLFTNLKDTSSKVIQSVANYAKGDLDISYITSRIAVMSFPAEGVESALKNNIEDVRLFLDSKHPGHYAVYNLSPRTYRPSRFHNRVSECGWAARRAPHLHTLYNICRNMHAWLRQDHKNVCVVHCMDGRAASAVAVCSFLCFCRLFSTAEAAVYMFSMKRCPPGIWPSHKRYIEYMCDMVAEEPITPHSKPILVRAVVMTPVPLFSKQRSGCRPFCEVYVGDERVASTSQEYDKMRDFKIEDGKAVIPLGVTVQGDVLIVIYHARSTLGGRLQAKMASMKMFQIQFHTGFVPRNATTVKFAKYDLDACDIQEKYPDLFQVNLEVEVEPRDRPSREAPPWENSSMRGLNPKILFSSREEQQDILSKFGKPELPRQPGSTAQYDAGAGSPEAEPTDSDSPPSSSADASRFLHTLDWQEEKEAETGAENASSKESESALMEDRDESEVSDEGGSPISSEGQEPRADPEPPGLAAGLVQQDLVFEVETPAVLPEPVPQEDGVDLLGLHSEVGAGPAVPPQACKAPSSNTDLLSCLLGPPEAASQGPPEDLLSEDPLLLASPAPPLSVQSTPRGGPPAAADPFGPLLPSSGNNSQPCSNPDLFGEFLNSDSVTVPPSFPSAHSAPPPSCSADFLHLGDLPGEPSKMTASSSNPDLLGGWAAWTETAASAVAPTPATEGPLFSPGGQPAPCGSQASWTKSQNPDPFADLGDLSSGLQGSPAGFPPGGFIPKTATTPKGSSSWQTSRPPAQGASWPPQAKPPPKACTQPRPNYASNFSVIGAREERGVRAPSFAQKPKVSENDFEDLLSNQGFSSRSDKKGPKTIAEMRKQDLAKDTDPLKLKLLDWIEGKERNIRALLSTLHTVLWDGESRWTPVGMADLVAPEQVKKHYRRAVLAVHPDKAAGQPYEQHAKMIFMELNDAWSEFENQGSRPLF
# MAP4K5, sequence (Q9Y4K4 whole entry): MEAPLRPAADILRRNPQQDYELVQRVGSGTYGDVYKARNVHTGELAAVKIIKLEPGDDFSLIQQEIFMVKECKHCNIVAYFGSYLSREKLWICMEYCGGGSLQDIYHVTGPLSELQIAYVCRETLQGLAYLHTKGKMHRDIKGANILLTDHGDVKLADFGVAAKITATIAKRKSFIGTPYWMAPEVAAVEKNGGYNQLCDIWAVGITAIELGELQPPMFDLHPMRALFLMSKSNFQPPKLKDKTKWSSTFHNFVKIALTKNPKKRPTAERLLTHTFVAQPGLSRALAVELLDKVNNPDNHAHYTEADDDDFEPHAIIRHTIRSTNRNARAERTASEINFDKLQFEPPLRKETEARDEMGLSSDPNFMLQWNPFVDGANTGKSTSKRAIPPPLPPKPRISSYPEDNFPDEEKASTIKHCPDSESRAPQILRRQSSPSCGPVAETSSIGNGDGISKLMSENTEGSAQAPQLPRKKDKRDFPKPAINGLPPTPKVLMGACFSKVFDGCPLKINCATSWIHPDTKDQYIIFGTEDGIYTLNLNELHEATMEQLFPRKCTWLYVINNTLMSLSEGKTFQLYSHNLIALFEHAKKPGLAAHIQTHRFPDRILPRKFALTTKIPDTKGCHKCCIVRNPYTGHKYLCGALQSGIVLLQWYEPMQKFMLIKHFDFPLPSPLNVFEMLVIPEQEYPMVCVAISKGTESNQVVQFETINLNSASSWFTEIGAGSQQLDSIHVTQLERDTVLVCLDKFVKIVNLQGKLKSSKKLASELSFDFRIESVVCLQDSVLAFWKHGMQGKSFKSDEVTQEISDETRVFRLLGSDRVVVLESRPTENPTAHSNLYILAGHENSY
# CDKL1, sequence (Q00532 whole entry): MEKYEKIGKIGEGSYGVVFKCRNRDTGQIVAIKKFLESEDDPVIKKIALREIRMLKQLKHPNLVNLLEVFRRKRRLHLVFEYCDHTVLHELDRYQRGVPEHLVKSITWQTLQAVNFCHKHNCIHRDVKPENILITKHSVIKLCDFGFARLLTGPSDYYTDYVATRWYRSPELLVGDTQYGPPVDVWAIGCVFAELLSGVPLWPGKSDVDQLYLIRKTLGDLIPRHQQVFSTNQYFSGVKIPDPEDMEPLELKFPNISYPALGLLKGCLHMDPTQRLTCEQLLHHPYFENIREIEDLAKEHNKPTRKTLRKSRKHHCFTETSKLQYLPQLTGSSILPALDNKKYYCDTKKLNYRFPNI
smiles,measurement,setting,value
"CNS(=O)(=O)c1ccc(N(C)C)c(Nc2nc(C)nc3cc(OC)c(OC)cc23)c1 [compound 15, 3-((6,7-dimethoxy-2-methylquinazolin-4-yl)amino)-4-(dimethylamino)-N-methylbenzenesulfonamide]",inhibition at 1 µM,DCAMKL1,9%
same,inhibition at 1 µM,ERK5,5%
same,inhibition at 1 µM,HUNK,0%
same,inhibition at 1 µM,MLK1,0%
same,inhibition at 1 µM,FLT3(R834Q),32%
same,inhibition at 1 µM,SRMS,17%
same,inhibition at 1 µM,FGR,0%
same,inhibition at 1 µM,CDK4-cyclinD1,36%
same,inhibition at 1 µM,[1],4%
same,inhibition at 1 µM,NEK11,12%
same,inhibition at 1 µM,[2],16%
same,inhibition at 1 µM,FGFR2,0%
same,inhibition at 1 µM,AKT3,4%
same,inhibition at 1 µM,QSK,22%
same,inhibition at 1 µM,EGFR(G719C),0%
same,inhibition at 1 µM,EGFR(L861Q),0%
same,inhibition at 1 µM,KIT,10%
same,inhibition at 1 µM,GAK,78%
same,inhibition at 1 µM,TESK1,1%
same,inhibition at 1 µM,CDKL1,2%
same,inhibition at 1 µM,MAP4K5,3%
same,inhibition at 1 µM,MAP4K4,9%
same,inhibition at 1 µM,PKAC-alpha,0%
same,inhibition at 1 µM,EPHA5,0%
